Article PMC5774841, “High-level production and purification in a functional state of an extrasynaptic gamma-aminobutyric acid type A receptor containing α4β3δ subunits” (PLoS ONE, 2018)
Read-outs that look alike come from different tables or passages of the source.

Columns and labels:
[1] = biological target: T1, α4β3N-Flag-δ GABAA receptor reconstituted into CHAPS/lipid micelles (Homo sapiens, UniProt O14764+P28472+P48169); experiment: [3H]muscimol binding to purified receptor reconstituted into CHAPS/lipid micelles
T1 construct: made in house; DDM solubilization, anti-Flag beads, elution with Flag peptide into CHAPS/lipid
T1 sequence (P48169 36-554): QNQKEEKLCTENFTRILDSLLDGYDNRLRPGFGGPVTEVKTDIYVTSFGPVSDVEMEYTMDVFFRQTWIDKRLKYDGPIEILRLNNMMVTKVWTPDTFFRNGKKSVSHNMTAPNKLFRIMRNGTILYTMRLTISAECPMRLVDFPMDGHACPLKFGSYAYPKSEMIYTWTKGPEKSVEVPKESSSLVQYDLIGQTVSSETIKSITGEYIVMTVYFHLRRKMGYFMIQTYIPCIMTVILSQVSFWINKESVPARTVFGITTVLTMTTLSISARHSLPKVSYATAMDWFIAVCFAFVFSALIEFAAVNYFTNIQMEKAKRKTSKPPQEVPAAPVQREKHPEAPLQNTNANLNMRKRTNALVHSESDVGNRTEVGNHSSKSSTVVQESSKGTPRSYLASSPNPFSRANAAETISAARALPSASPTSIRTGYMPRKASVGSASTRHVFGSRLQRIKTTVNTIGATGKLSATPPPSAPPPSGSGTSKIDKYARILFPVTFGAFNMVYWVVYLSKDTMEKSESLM
T1 sequence (P28472 26-473 isoform P28472-2 limits assumed): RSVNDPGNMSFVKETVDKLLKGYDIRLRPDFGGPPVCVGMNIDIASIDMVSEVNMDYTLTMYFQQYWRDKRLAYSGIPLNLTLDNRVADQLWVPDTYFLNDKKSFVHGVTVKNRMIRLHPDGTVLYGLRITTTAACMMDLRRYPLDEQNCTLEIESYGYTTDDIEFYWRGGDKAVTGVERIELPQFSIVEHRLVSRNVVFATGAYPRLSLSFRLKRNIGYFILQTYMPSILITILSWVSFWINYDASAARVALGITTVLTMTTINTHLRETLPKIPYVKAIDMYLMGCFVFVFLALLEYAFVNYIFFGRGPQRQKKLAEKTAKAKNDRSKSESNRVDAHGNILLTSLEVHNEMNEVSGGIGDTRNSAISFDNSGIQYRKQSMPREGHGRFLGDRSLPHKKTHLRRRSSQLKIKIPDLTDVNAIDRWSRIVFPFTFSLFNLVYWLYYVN
T1 sequence (O14764 25-452): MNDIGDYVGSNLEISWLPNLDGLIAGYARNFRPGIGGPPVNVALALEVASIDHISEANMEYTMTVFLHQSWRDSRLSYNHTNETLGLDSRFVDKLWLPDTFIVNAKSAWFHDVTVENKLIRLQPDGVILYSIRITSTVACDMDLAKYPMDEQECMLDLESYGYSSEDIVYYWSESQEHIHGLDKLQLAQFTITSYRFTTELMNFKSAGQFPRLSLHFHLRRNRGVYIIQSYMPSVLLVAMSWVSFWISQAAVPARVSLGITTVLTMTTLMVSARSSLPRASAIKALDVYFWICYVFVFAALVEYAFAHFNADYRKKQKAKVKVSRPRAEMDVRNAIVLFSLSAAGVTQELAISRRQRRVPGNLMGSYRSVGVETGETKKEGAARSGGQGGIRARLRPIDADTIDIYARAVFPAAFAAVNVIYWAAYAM
Procedure: Cells with inducible expression of N-Flag-α4β3 and α4β3N-Flag-δ were induced with tetracycline (1 μg/ml final concentration, Life Technologies) and 5 mM sodium butyrate (Sigma-Aldrich, St. Louis, MO) for 24 hours and harvested in 10 ml per ten 15 cm–dishes of 10 mM HEPES, 1 mM EDTA (buffer A) freshly supplemented with protease inhibitors and 1 mM PMSF (final concentration) at 4°C with all subsequent purification procedures carried out at 4°C. Cells were homogenized with three cycles of 10 s each separated by 30 s intervals (Ultra Turrax T25, IKA Works, Wilmington, NC), followed by 20 strokes in Kontes-Duval glass tissue grinder. Homogenate was centrifuged at 43,000 x g for 30 min at 4°C and the pellet was resuspended in the buffer A and the entire procedure repeated. The resulting pellet was resuspended in the buffer A and a final homogenization carried out by aspiration with a 21-gauge needle and expulsed through 27-gauge needle. Concentration of total protein was assessed with the Pierce BCA protein assay kit (Pierce, Rockford, IL). Under constant stirring, the membrane fraction was solubilized over 30 min by dropwise addition of 30 mM DDM (Anatrace, Maumee, OH) in buffer B (50 mM Tris/HCl, 150 mM NaCl, 2 mM CaCl2, 5 mM KCl, 5 mM MgCl2, 4 mM EDTA, pH 7.5) and 10% glycerol, supplemented with protease inhibitors and 1 mM PMSF, with the volume adjusted to produce an effective protein concentration of 1 mg/ml. Following an additional 2 hours of solubilization, the solution was centrifuged at 45,000 x g for 30 min at 4°C. Insoluble material in the pellet was discarded and the supernatant was stored in liquid nitrogen overnight.
After washing once with buffer B, 2 ml of Flag beads (Sigma-Aldrich) were pre-treated overnight at 4°C on polypropylene columns (Qiagen, Hilden, Germany) with 1.5 ml of 10 mg/ml poly-d-Lysine hydrobromide with gentle agitation. On the following day, beads were washed three times with six 2–ml volumes of buffer B with 10% glycerol and incubated with solubilized membrane fractions with gentle agitation for 2 hours. Once transferred back into propylene columns, beads were washed once with wash buffer (17 mM CHAPS, 8.5 mM asolectin in buffer B with 10% glycerol, homogenized with glass grinder and sonicated for 10 min), equilibrated with the same buffer for 1 hour with agitation and washed again. Two more washes with elution buffer (5 mM CHAPS, 200 μM asolectin in buffer B with 10% glycerol, prepared as with wash buffer) were performed prior to elution of receptors by incubation with two x 2–ml of elution buffer supplemented with 0.15 mg/ml of Flag peptide (Sigma-Aldrich) for 2 hours with gentle rocking (elution 1). Second elution (elution 2) and another overnight incubation with 2–ml (elution 3) followed.
[…] […] […] […] The curves were fitted by nonlinear least squares with weighting by standard deviation. These yielded apparent dissociation constants of 9.2 ± 0.6 and 35 ± 12 nM, respectively. The Bmax of the membranes was 22.6 ± 0.5 pmol/mg and for reconstituted receptors in micelles was 19 ± 3 pmol/mL. The Hill coefficients differed little from one (1.07 ± 0.3 and 0.90 ± 0.05 respectively).

N–Flag–α4β3 receptors = biological target: T2, N–Flag–α4β3 receptors (Homo sapiens, UniProt P28472+P48169); experiment: Whole-cell patch-clamp of GABA-elicited currents in the control N-Flag-α4β3 cell line; type: cell-based; conditions: drug 10 μM co-applied for 4 s, 10 mM GABA, notch protocol
T2 construct: expressed in transfected cells
T2 sequence (P48169 36-554): as the sequence (P48169 36-554) above
T2 sequence (P28472 26-473 isoform P28472-2 limits assumed): as the sequence (P28472 26-473 isoform P28472-2 limits assumed) above
Procedure: HEK 293 cells stably expressing tetracycline inducible α4β3N-Flag-δ or N-Flag-α4β3 GABAA receptors were cultured on glass coverslips and induced with tetracycline (2μg/ml) 24 hours before recordings. The coverslips were placed in a recording chamber and perfused with the bath solution. Cells were voltage clamped at -50 mV using the patch clamp amplifier (Axopatch 200A, Molecular Devices, Sunnyvale, CA). GABAA receptor-mediated chloride currents from HEK cells were recorded using the whole-cell configuration of patch-clamp electrophysiology. Data was acquired using Clampex version 8.1 (Molecular Devices), digitized at 10 kHz and filtered at 5 kHz. Current traces were analyzed using Clampfit version 9 (Molecular Devices). Series resistance ranged from 0.5–4 MΩ and cell capacitances from 9–18 pF. Membrane-capacitance and series-resistance were compensated electronically by > 85% with a lag of 10 μ seconds. […]
Statistical analysis for electrophysiology was done using GraphPad Prism 6. […] For Western blotting, the ratio of the signal intensity of individual antibodies for each sample was determined. Pooled (weighted) mean and standard deviation was determined for each receptor and p value determined by two-tailed unpaired Student’s t-test, using GraphPad QuickCalcs software.

[2] = biological target: T3, α4β3N-Flag-δ GABAA receptor in native membranes (Homo sapiens, UniProt O14764+P28472+P48169); experiment: [3H]muscimol binding (filtration assay) to cell membranes
T3 construct: expressed in transfected cells
T3 sequence (P48169 36-554): as the sequence (P48169 36-554) above
T3 sequence (P28472 26-473 isoform P28472-2 limits assumed): as the sequence (P28472 26-473 isoform P28472-2 limits assumed) above
T3 sequence (O14764 25-452): as the sequence (O14764 25-452) above
Procedure: Radioactive ligand binding assays were carried out as previously described, with the exception that GABAAR binding sites were assayed at 250 nM [^3H]muscimol because of this receptor’s higher affinity.
(§1) Statistical analysis for electrophysiology was done using GraphPad Prism 6. […] Analysis of the [^3H]muscimol binding was carried out using Igor Pro 7 (WaveMetrics). For Western blotting, the ratio of the signal intensity of individual antibodies for each sample was determined. Pooled (weighted) mean and standard deviation was determined for each receptor and p value determined by two-tailed unpaired Student’s t-test, using GraphPad QuickCalcs software.
Fig 3 The binding isotherm of the agonist [^3H]muscimol to the α4β3N-Flag-δ GABAA receptor in native membranes and reconstituted into CHAPS/lipid micelles. Binding curves of [^3H]muscimol to α4β3N–Flag–δ GABAΑRs, both, in cell membranes (pmol/mg membrane protein) and after purification and reconstitution into micelles of 5 mM CHAPS and 200 μM DOPC:DOPS:Cholesterol in mole ratio 52:15:33 (pmol/mL). […] The displaceable binding and its standard deviation was determined by subtracting these two values and propagating errors at each total muscimol concentration. The curves were fitted by nonlinear least squares with weighting by standard deviation. These yielded apparent dissociation constants of 9.2 ± 0.6 and 35 ± 12 nM, respectively. The Bmax of the membranes was 22.6 ± 0.5 pmol/mg and for reconstituted receptors in micelles was 19 ± 3 pmol/mL. The Hill coefficients differed little from one (1.07 ± 0.3 and 0.90 ± 0.05 respectively).

α4β3N–Flag–δ GABAAR = biological target: T4, α4β3N–Flag–δ GABAAR (Homo sapiens, UniProt O14764+P28472+P48169); experiment: Whole-cell patch-clamp of GABA-elicited currents in the induced α4β3N-Flag-δ cell line; type: cell-based; conditions: for enhancement of maximum GABA elicited currents: drug 10 μM co-applied for 4 s, notch protocol
T4 construct: expressed in transfected cells
T4 sequence (P48169 36-554): as the sequence (P48169 36-554) above
T4 sequence (P28472 26-473 isoform P28472-2 limits assumed): as the sequence (P28472 26-473 isoform P28472-2 limits assumed) above
T4 sequence (O14764 25-452): as the sequence (O14764 25-452) above
Procedure: HEK 293 cells stably expressing tetracycline inducible α4β3N-Flag-δ or N-Flag-α4β3 GABAA receptors were cultured on glass coverslips and induced with tetracycline (2μg/ml) 24 hours before recordings. The coverslips were placed in a recording chamber and perfused with the bath solution. Cells were voltage clamped at -50 mV using the patch clamp amplifier (Axopatch 200A, Molecular Devices, Sunnyvale, CA). GABAA receptor-mediated chloride currents from HEK cells were recorded using the whole-cell configuration of patch-clamp electrophysiology. Data was acquired using Clampex version 8.1 (Molecular Devices), digitized at 10 kHz and filtered at 5 kHz. Current traces were analyzed using Clampfit version 9 (Molecular Devices). Series resistance ranged from 0.5–4 MΩ and cell capacitances from 9–18 pF. Membrane-capacitance and series-resistance were compensated electronically by > 85% with a lag of 10 μ seconds. Drugs were delivered via a multichannel superfusion pipette coupled to a piezoelectric elements that switched superfusion solution in < 1 millisecond. The recording chamber was continuously perfused with the bath solution in mM: 145 NaCl, 5 KCl, 10 HEPES, 2 CaCl2, and 1 MgCl2, 10 glucose, pH 7.4 (pH adjusted with N-methyl glucosamine). The pipette solution for whole-cell recordings contained in mM: 140 KCl, 10 HEPES, 1 EGTA and 2 MgCl2 at pH 7.3 (pH adjusted with KOH). Open pipette resistances ranged from 1.6–3 M. Errors are standard deviation from at least three replicas.
as §1

[3] = system: concatenated subunits β3-α1-δ/β3-α1; conditions: cited from earlier work
α1β3δ GABAARs = system: α1β3δ GABAARs; design: method as in PMID 27493204; conditions: cited from earlier work; for degree of desensitization: in 4 seconds
α4β3δ receptors = conditions: cited from earlier work
α4β3γ2 receptors = conditions: cited from earlier work
[4] = 2 nM [3H]muscimol, reconstituted
[5] = CHAPS/DOPC:DOPS:Cholesterol micelles
[6] = after 8.5 ms pulse of 100 μM GABA, two exponentials
[7] = linear fit of activation rate up to ~10 μM GABA

O=C(Nc1c(-c2cccs2)nc2ccccn12)c1ccc(Cl)cc1 [DS2]
EC50 ([1]; 2 nM [3H]muscimol, CHAPS/PC:PS:Cholesterol micelles, read-out: EC50 of modulation of [3H]muscimol binding): 2300 ± 800 nM | Hill coefficient of modulation of [3H]muscimol binding [1, 4]: 1.2 ± 0.5 | maximum modulation of [3H]muscimol binding [1, 4]: 132 ± 4% | enhancement of displaceable [3H]muscimol binding ([1]; DS2 30 μM, [3H]muscimol 2 nM, CHAPS/lipid micelles): 128 ± 11% | enhancement of maximum GABA elicited currents (N–Flag–α4β3 receptors): 12 ± 7% | Hill coefficient of modulation of [3H]muscimol binding ([2]; 2 nM [3H]muscimol, membranes): 0.9 ± 0.2 | maximum modulation of [3H]muscimol binding ([2]; 2 nM [3H]muscimol, membranes): 139 ± 4% | EC50 ([2]; 2 nM [3H]muscimol, native membranes, read-out: EC50 of modulation of [3H]muscimol binding): 2000 ± 700 nM | enhancement of displaceable [3H]muscimol binding ([2]; DS2 30 μM, [3H]muscimol 2 nM, membranes): 142 ± 12% | enhancement of maximum GABA elicited currents (α4β3N–Flag–δ GABAAR; 10 mM GABA): 230 ± 63%

NCc1cc(=O)[nH]o1 [[^3H]muscimol]
Kd ([1]; 5 mM CHAPS and 200 μM DOPC:DOPS:Cholesterol 52:15:33 micelles, read-out: apparent dissociation constant): 35 ± 12 nM | Bmax [1, 5]: 19 ± 3 pmol/mL | Hill coefficient of binding isotherm [1, 5]: 0.90 ± 0.05 | Bmax (sites per mg of membrane protein) ([2]; cell membranes): 22.6 ± 0.5 pmol/mg | apparent affinity relative to α1β3γ2 GABAAR cell line ([2]; higher than in previously developed α1β3γ2 cell line (refs 13, 26)): 5 fold | EC50 ([2]; read-out: apparent dissociation constant (EC50 of binding isotherm)): 9.2 ± 0.6 nM

picrotoxin
fraction of spontaneously open receptors (picrotoxin-inhibited current) (α4β3N–Flag–δ GABAAR; 2 mM picrotoxin for 8 s, relative to current with 10 mM GABA + 10 μM etomidate): about 3.2 ± 0.6%

NCCCC(=O)O [GABA, γ-aminobutyric acid]
desensitization time constant ([3]; 1 mM GABA): 4.7 s | degree of desensitization ([3]; after 4 s at 1 mM GABA): ~ 40% | deactivation time constant [3]: ~ 50 ms | 10–90% rise times (α1β3δ GABAARs; 1 mM GABA, depending on the construct ratio): 4 to 22 ms | deactivation rate (time) (α1β3δ GABAARs; construct ratio 1:1:0.3): ~ 170 ms | degree of desensitization (α1β3δ GABAARs; much lower transfection ratios): 40–70% | degree of desensitization (α1β3δ GABAARs; transfection ratios similar to the authors'): little desensitization | deactivation rate (time) (α1β3δ GABAARs; varied with ratio of constructs transfected): 100 to 200 ms | desensitization time constant τ (α4β3δ receptors; 100 μM GABA): 4.8 s | rise time (α4β3δ receptors; 100 μM GABA): ~ 100 ms | deactivation time constant (α4β3δ receptors; lower time resolution perfusion system): ~ 400 ms | activation time constant τ (α4β3N–Flag–δ GABAAR; 0.1 μM GABA): 165 ± 20 ms | activation time constant τ (α4β3N–Flag–δ GABAAR; 100 μM GABA): 6 ± 1 ms | fraction of available channels opened (efficacy of GABA) (α4β3N–Flag–δ GABAAR; 10 mM GABA, assumes 10 mM GABA + 10 μM etomidate opens 100% of channels): 17 ± 6% | desensitization time constant τ (α4β3N–Flag–δ GABAAR; 8-sec exposure to GABA 1–100 μM, all concentrations averaged): 2.6 ± 0.9 s | fraction of total current decay amplitude occupied by fastest phase (α4β3N–Flag–δ GABAAR; after 8.5 ms pulse of 100 μM GABA): 76 ± 12% | deactivation time constant, fastest phase (α4β3N–Flag–δ GABAAR; [6]): 175 ± 50 ms | deactivation time constant, slow phase (α4β3N–Flag–δ GABAAR; [6]): 1100 ± 440 ms | degree of desensitization (α4β3N–Flag–δ GABAAR; in 4 seconds at 100 μM GABA): ~ 70% | k+1 apparent forward GABA binding rate (α4β3N–Flag–δ GABAAR; [7]): 5.7 ± 0.2 x 10^6 s^–1M^–1 | k–1 apparent reverse GABA binding rate (α4β3N–Flag–δ GABAAR; [7]): 5 ± 1 s^–1 | Hill coefficient of GABA concentration-response curve (α4β3N–Flag–δ GABAAR; peak currents normalized to 10 mM GABA): 1.5 ± 0.24 | k+1 apparent forward GABA binding rate (α4β3γ2 receptors): 6 x 10^6 s^–1M^–1

CCOC(=O)c1cncn1[C@H](C)c1ccccc1 [etomidate]
enhancement of maximum GABA elicited currents (N–Flag–α4β3 receptors): 490 ± 84% | enhancement of maximum GABA elicited currents (α4β3N–Flag–δ GABAAR; 10 mM GABA): 540 ± 235%
